Results on five molecules are retold here after the NIST ThermoML archive (doi:10.1016/j.fluid.2007.01.021).

± gives the expanded uncertainty stated by the source.

The conditions of series [1]: 293.15 K; 101.33 kPa; Liquid.
Series [2] in a line: refractive index (Na D-line) (dimensionless). The conditions noted are these: 293.15 K; 101.33 kPa; Liquid; Standard Abbe refractometry.

Turning to `OC1CCCCC1` [cyclohexanol], the mass density in series [1] is 962.3 ± 0.6 kg/m3. For the same molecule, the refractive index in series [2] turned out to be 1.4639 ± 0.0006.

With `CC(=O)OC1CCCCC1` [cyclohexyl ethanoate], the mass density in series [1] amounted to 968.2 ± 0.5 kg/m3. Moreover, the refractive index in series [2] is reported as 1.4422 ± 0.0006.

Turning to `CCCCCOC(C)=O` [pentyl ethanoate], the mass density in series [1] was found to be 875 ± 0.8 kg/m3. Moreover, the refractive index in series [2] turned out to be 1.4026 ± 0.0006.

`CCCO` [propan-1-ol]: the mass density in series [1] was 803.5 ± 1 kg/m3. Besides, the refractive index in series [2] is reported as 1.385 ± 0.0006.

For the molecule `O` [water], in series [1], the mass density is given as 998.4 ± 0.5 kg/m3. Further, in series [2], the refractive index is 1.3326 ± 0.0006.
